Experimental data as given in US6841661B2, “Glycopeptide antibacterial compounds, compositions containing same and methods of using same” (Princeton Univerisity, priority 1999, dated 2005).

Legend:
[1] = system: E. faecium CL 4931 (VanA); assay: microbe, parasite or virus in culture; type: cell-based; parameters: CL4931 (in vitro testing): unit not given here; settings: Tables 7 and 8; unit not given
Excerpt: (§1) National Committee for Clinical Laboratory Standards (NCCLS) guidelines [Methods for Dilution Antimicrobial Susceptibility Tests for Bacteria that Grow Aerobically-Fourth Edition; Approved Standard (NCCLS Document M7-A4, January 1997)] are used to establish the assay, although variations are made to optimize the published method according to the specific needs of the present investigation.
(§2) The test panel currently includes eight enterococci and 13 staphylococci, which are selected based upon their antibiotic susceptibility profiles. The methicillin-sensitive Staphylococcus aureus (MSSA) strain MB2985 (Smith isolate) is used to assesses the potential for serum protein binding of the compounds. The paired Gram-negative strains ASP #49 (envA-) and ASP #50 (envA+) (M. Salvatore/N. Lee) are included to judge membrane effects. Table 3 presents a detailed description of the strains included in the panel, including some of the sources of the strains of bacteria.
(§3) The glycopeptide antibiotic teicoplanin is included whenever possible.
(§4) TSB, containing 10% HS* for vancomycin intermediate S. aurcus/methicillin-resistant S. aureus (VISA/MRSA) strains, is inoculated from an appropriate source (frozen broth or agar slant) and grown approximately 17 hr at 35° C. with shaking at 220 rpm. Cultures are grown in tubes with a volume of 5 ml for enterococci and 2 ml for all other strains.
(§5) Four milliliter (4 ml) overnight culture is added to 36 ml physiological saline to obtain tenfold dilutions (enterococci). Overnight culture (0.4 ml) is added to 39.6 ml saline to obtain 100-fold dilutions (all strains except enterococci). Diluted cultures are maintained on ice until time of inoculation of test plates.
(§6) The number of CFU/mL is determined on BHI agar plates, although this is not done routinely because titers of overnight cultures are relatively constant. The test media include: • BHI for enterococci and VISA/MRSA; • MH II (i.e., cation-adjusted Mueller-Hinton broth) for MRS, MSS and E. coli.; • MH II+HSA for MSSA is prepared as follows: • a. 2×MHII+86mg/ml HSA • b. Dissolve 4.3 g HSA in 50 ml autoclaved 2x MH II. • c. pH to 7.0 by adding 2M MOPS, sodium. • d. Filter sterilize using 0.22 μm Coming cellulose acetate filter, used because of reported low protein binding. • e. 1×MH II+43 mg/ml HSA • f. Dilute the 2×medium twofold and filter as above. 5.8.6. Preparation of Test Plates
(§7) Using a Denley liquid handling system (or similar automatic device), 100 μ1×medium is added to each well in columns 2-12 of a 96-well microtiter dish. Using a multichannel pipettor, 100 μl 2×medium is added to each well in column 1. Plates may be filled on the day prior to assay, wrapped in plastic bags and refrigerated.
(§8) Vancomycin, Schering 29482, and teicoplanin are prepared on a weight per volume basis using 10 mM 3-(N-morpholino)propane-sulfonic acid (MOPS) buffer pH 7. Test compounds are received in solution in appropriate solvent (typically as 1 mg/ml in DMSO) or are dissolved in appropriate solvent prior to further dilution in 10 mM MOPS buffer, ph7. Consistent with NCCLS guidelines, antibiotics are handled aseptically but are not otherwise sterilized.
(§9) 100 μl appropriately diluted antibiotic solution is added to the first well of the designated row of the 96-well microtiter dish and serially diluted by twofold across the row using the Denley liquid handling system. With the aid of a Dynatech NEC 2000 inoculator, each well of the microtiter dish is inoculated with 1.5 μl diluted overnight culture, yielding approximately 1-5×10^6 CFU/ml for enterococci and approximately 3-7×10^5 CFU/ml for all other strains. Dishes are placed in stacks of no more than five, wrapped in plastic bags and incubated at 35° C. • Indication of result(s) type (% INH, IC50, Zone size, etc.) • MIC=minimum inhibitory concentration ps 5.8.9. Interpretation of the Results on the Basis of Activity […]

[2] = system: E. faecium CL 5053 (VanA); assay: microbe, parasite or virus in culture; type: cell-based; parameters: CL5053 (in vitro testing): unit not given here; settings: Tables 7 and 8; unit not given
Excerpt: as §1, §2, §3, §4, §5, §6, §7, §8, §9

[3] = system: E. faecium CL 5242 (VanA); assay: microbe, parasite or virus in culture; type: cell-based; parameters: CL5242 (in vitro testing): unit not given here; settings: Tables 7 and 8; unit not given
Excerpt: as §1, §2, §3, §4, §5, §6, §7, §8, §9

[4] = system: E. faecalis CL 4877 (VanB); assay: microbe, parasite or virus in culture; type: cell-based; parameters: CL4877 (in vitro testing): unit not given here; settings: Tables 7 and 8; unit not given
Excerpt: as §1, §2, §3, §4, §5, §6, §7, §8, §9

[5] = system: CL 4931, CL 5053, CL 5242 and CL 4877; type: cell-based, E. faecium, E. faecalis; parameters: unit not given here; settings: mean of CL4931, CL5053, CL5242, CL4877; unit not given
Excerpt: as §1, §2, §3, §4, §5, §6, §7, §8, §9

Row | SMILES | CL4931 (in vitro testing) [1] | CL5053 (in vitro testing) [2] | CL5242 (in vitro testing) [3] | CL4877 (in vitro testing) [4] | Mean [5]
1 | CNC(CC(C)C)C(=O)NC1C(=O)NC(CC(N)=O)C(=O)NC2C(=O)NC3C(=O)NC(C(=O)NC(C(=O)O)c4cc(O)cc(O)c4-c4cc3ccc4O)C(O)c3ccc(c(Cl)c3)Oc3cc2cc(c3OC2OC(CNCc3ccc(N)cc3)C(O)C(O)C2OC2CC(C)(NCc3ccc(OCc4ccc(Cl)c(Cl)c4)cc3)C(O)C(C)O2)Oc2ccc(cc2Cl)C1O (centres unmarked) [Compound 133] | 2 | 2 | 0.5 | 0.03 | 1.1
2 | CNC(CC(C)C)C(=O)NC1C(=O)NC(CC(N)=O)C(=O)NC2C(=O)NC3C(=O)NC(C(=O)NC(C(=O)O)c4cc(O)cc(O)c4-c4cc3ccc4O)C(O)c3ccc(c(Cl)c3)Oc3cc2cc(c3OC2OC(CNCc3ccccc3)C(O)C(O)C2OC2CC(C)(NCc3ccc(OCc4ccc(Cl)c(Cl)c4)cc3)C(O)C(C)O2)Oc2ccc(cc2Cl)C1O (centres unmarked) [Compound 134] | 2 | 4 | 1 | 0.25 | 1.8
3 | CNC(CC(C)C)C(=O)NC1C(=O)NC(CC(N)=O)C(=O)NC2C(=O)NC3C(=O)NC(C(=O)NC(C(=O)O)c4cc(O)cc(O)c4-c4cc3ccc4O)C(O)c3ccc(c(Cl)c3)Oc3cc2cc(c3OC2OC(CNCCc3ccc(N)cc3)C(O)C(O)C2OC2CC(C)(NCc3ccc(OCc4ccc(Cl)c(Cl)c4)cc3)C(O)C(C)O2)Oc2ccc(cc2Cl)C1O (centres unmarked) [Compound 135] | 4 | 4 | 1 | 0.06 | 2.3
4 | CNC(CC(C)C)C(=O)NC1C(=O)NC(CC(N)=O)C(=O)NC2C(=O)NC3C(=O)NC(C(=O)NC(C(=O)O)c4cc(O)cc(O)c4-c4cc3ccc4O)C(O)c3ccc(c(Cl)c3)Oc3cc2cc(c3OC2OC(CNCc3ccc(F)cc3)C(O)C(O)C2OC2CC(C)(NCc3ccc(OCc4ccc(Cl)c(Cl)c4)cc3)C(O)C(C)O2)Oc2ccc(cc2Cl)C1O (centres unmarked) [Compound 136] | 4 | 4 | 1 | 0.12 | 2.3
5 | CNC(CC(C)C)C(=O)NC1C(=O)NC(CC(N)=O)C(=O)NC2C(=O)NC3C(=O)NC(C(=O)NC(C(=O)O)c4cc(O)cc(O)c4-c4cc3ccc4O)C(O)c3ccc(c(Cl)c3)Oc3cc2cc(c3OC2OC(CNCc3cccc(Cl)c3)C(O)C(O)C2OC2CC(C)(NCc3ccc(OCc4ccc(Cl)c(Cl)c4)cc3)C(O)C(C)O2)Oc2ccc(cc2Cl)C1O (centres unmarked) [Compound 137] | 4 | 4 | 1 | 0.12 | 2.3
6 | CNC(CC(C)C)C(=O)NC1C(=O)NC(CC(N)=O)C(=O)NC2C(=O)NC3C(=O)NC(C(=O)NC(C(=O)O)c4cc(O)cc(O)c4-c4cc3ccc4O)C(O)c3ccc(c(Cl)c3)Oc3cc2cc(c3OC2OC(CNCc3ccc(OC)cc3)C(O)C(O)C2OC2CC(C)(NCc3ccc(OCc4ccc(Cl)c(Cl)c4)cc3)C(O)C(C)O2)Oc2ccc(cc2Cl)C1O (centres unmarked) [Compound 138] | 8 | 4 | 1 | 0.5 | 3.4
7 | CNC(CC(C)C)C(=O)NC1C(=O)NC(CC(N)=O)C(=O)NC2C(=O)NC3C(=O)NC(C(=O)NC(C(=O)O)c4cc(O)cc(O)c4-c4cc3ccc4O)C(O)c3ccc(c(Cl)c3)Oc3cc2cc(c3OC2OC(CNCc3ccccc3N)C(O)C(O)C2OC2CC(C)(NCc3ccc(OCc4ccc(Cl)c(Cl)c4)cc3)C(O)C(C)O2)Oc2ccc(cc2Cl)C1O (centres unmarked) [Compound 139] | 8 | 4 | 2 | 0.25 | 3.6
8 | CNC(CC(C)C)C(=O)NC1C(=O)NC(CC(N)=O)C(=O)NC2C(=O)NC3C(=O)NC(C(=O)NC(C(=O)O)c4cc(O)cc(O)c4-c4cc3ccc4O)C(O)c3ccc(c(Cl)c3)Oc3cc2cc(c3OC2OC(CNCC3CCCCN3)C(O)C(O)C2OC2CC(C)(NCc3ccc(OCc4ccc(Cl)c(Cl)c4)cc3)C(O)C(C)O2)Oc2ccc(cc2Cl)C1O (centres unmarked) [Compound 140] | 4 | 8 | 2 | 0.5 | 3.6
9 | CNC(CC(C)C)C(=O)NC1C(=O)NC(CC(N)=O)C(=O)NC2C(=O)NC3C(=O)NC(C(=O)NC(C(=O)O)c4cc(O)cc(O)c4-c4cc3ccc4O)C(O)c3ccc(c(Cl)c3)Oc3cc2cc(c3OC2OC(CNCc3ccc(C)cc3)C(O)C(O)C2OC2CC(C)(NCc3ccc(OCc4ccc(Cl)c(Cl)c4)cc3)C(O)C(C)O2)Oc2ccc(cc2Cl)C1O (centres unmarked) [Compound 141] | 4 | 8 | 2 | 1 | 3.8
10 | CNC(CC(C)C)C(=O)NC1C(=O)NC(CC(N)=O)C(=O)NC2C(=O)NC3C(=O)NC(C(=O)NC(C(=O)O)c4cc(O)cc(O)c4-c4cc3ccc4O)C(O)c3ccc(c(Cl)c3)Oc3cc2cc(c3OC2OC(CNCC3CCCO3)C(O)C(O)C2OC2CC(C)(NCc3ccc(OCc4ccc(Cl)c(Cl)c4)cc3)C(O)C(C)O2)Oc2ccc(cc2Cl)C1O (centres unmarked) [Compound 142] | 4 | 8 | 2 | 2 | 4.0
11 | CNC(CC(C)C)C(=O)NC1C(=O)NC(CC(N)=O)C(=O)NC2C(=O)NC3C(=O)NC(C(=O)NC(C(=O)O)c4cc(O)cc(O)c4-c4cc3ccc4O)C(O)c3ccc(c(Cl)c3)Oc3cc2cc(c3OC2OC(CNCCc3ccccc3)C(O)C(O)C2OC2CC(C)(NCc3ccc(OCc4ccc(Cl)c(Cl)c4)cc3)C(O)C(C)O2)Oc2ccc(cc2Cl)C1O (centres unmarked) [Compound 143] | 8 | 4 | 2 | 2 | 4.0
12 | CNC(CC(C)C)C(=O)NC1C(=O)NC(CC(N)=O)C(=O)NC2C(=O)NC3C(=O)NC(C(=O)NC(C(=O)O)c4cc(O)cc(O)c4-c4cc3ccc4O)C(O)c3ccc(c(Cl)c3)Oc3cc2cc(c3OC2OC(CNC3CCCC3)C(O)C(O)C2OC2CC(C)(NCc3ccc(OCc4ccc(Cl)c(Cl)c4)cc3)C(O)C(C)O2)Oc2ccc(cc2Cl)C1O (centres unmarked) [Compound 144] | 4 | 8 | 2 | 2 | 4.0
13 | CNC(CC(C)C)C(=O)NC1C(=O)NC(CC(N)=O)C(=O)NC2C(=O)NC3C(=O)NC(C(=O)NC(C(=O)O)c4cc(O)cc(O)c4-c4cc3ccc4O)C(O)c3ccc(c(Cl)c3)Oc3cc2cc(c3OC2OC(CNCc3ccco3)C(O)C(O)C2OC2CC(C)(NCc3ccc(OCc4ccc(Cl)c(Cl)c4)cc3)C(O)C(C)O2)Oc2ccc(cc2Cl)C1O (centres unmarked) [Compound 145] | 8 | 8 | 1 | 0.5 | 4.4
